Reference: PubChem BioAssay (NCI)
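Test compounds were applied to cells in 96-well plates for 48 hours at 5 doses. TGI: total growth inhibition.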

Legend:
Test in all cases: NCI tumour cell line growth inhibition, 48 h
U251 CNS = test system: U251 CNS
NCI-H522 lung = test system: NCI-H522 lung
IGROV1 ovarian = test system: IGROV1 ovarian
COLO 205 colon = test system: COLO 205 colon
EKVX NSCLC = test system: EKVX NSCLC
SK-MEL-28 melanoma = test system: SK-MEL-28 melanoma
MALME-3M melanoma = test system: MALME-3M melanoma
KM20L2 colon = test system: KM20L2 colon
HT29 colon = test system: HT29 colon
SK-MEL-5 melanoma = test system: SK-MEL-5 melanoma
OVCAR-8 ovarian = test system: OVCAR-8 ovarian
UACC-62 melanoma = test system: UACC-62 melanoma
SF-268 CNS = test system: SF-268 CNS
SNB-19 CNS = test system: SNB-19 CNS
HOP-92 NSCLC = test system: HOP-92 NSCLC
SF-295 CNS = test system: SF-295 CNS
SN12C renal = test system: SN12C renal
SF-539 CNS = test system: SF-539 CNS
SNB-75 CNS = test system: SNB-75 CNS
A549 NSCLC = test system: A549 NSCLC
HOP-18 NSCLC = test system: HOP-18 NSCLC
RXF 393 renal = test system: RXF 393 renal
DLD-1 colon = test system: DLD-1 colon
SNB-78 CNS = test system: SNB-78 CNS
OVCAR-3 ovarian = test system: OVCAR-3 ovarian
M14 melanoma = test system: M14 melanoma
A498 renal = test system: A498 renal
ACHN renal = test system: ACHN renal
CCRF-CEM leukemia = test system: CCRF-CEM leukemia
HCT-15 colon = test system: HCT-15 colon
K-562 leukemia = test system: K-562 leukemia
DMS 273 small cell lung = test system: DMS 273 small cell lung
DMS 114 small cell lung = test system: DMS 114 small cell lung
TK-10 renal = test system: TK-10 renal
OVCAR-4 ovarian = test system: OVCAR-4 ovarian
786-0 renal = test system: 786-0 renal
UO-31 renal = test system: UO-31 renal
MOLT-4 leukemia = test system: MOLT-4 leukemia
OVCAR-5 ovarian = test system: OVCAR-5 ovarian
CAKI-1 renal = test system: CAKI-1 renal
HOP-62 NSCLC = test system: HOP-62 NSCLC
LXFL 529 NSCLC = test system: LXFL 529 NSCLC
RPMI-8226 leukemia = test system: RPMI-8226 leukemia
SW-620 colon = test system: SW-620 colon
NCI-H460 lung = test system: NCI-H460 lung
M19-MEL melanoma = test system: M19-MEL melanoma
HCT-116 colon = test system: HCT-116 colon
UACC-257 melanoma = test system: UACC-257 melanoma
NCI-H226 lung = test system: NCI-H226 lung
KM12 colon = test system: KM12 colon
HL-60(TB) leukemia = test system: HL-60(TB) leukemia
LOX IMVI melanoma = test system: LOX IMVI melanoma
NCI-H23 lung = test system: NCI-H23 lung
SK-OV-3 ovarian = test system: SK-OV-3 ovarian
SR leukemia = test system: SR leukemia
HCC-2998 colon = test system: HCC-2998 colon
SK-MEL-2 melanoma = test system: SK-MEL-2 melanoma
XF 498 CNS = test system: XF 498 CNS

In the case of `COc1cc(CCc2ccc(OC(C)=O)cc2)cc(OC)c1OC`, the TGI (U251 CNS) is reported as > 100 µM, the TGI (NCI-H522 lung) is reported as > 100 µM and the TGI (IGROV1 ovarian) is reported as > 100 µM. The TGI (COLO 205 colon) was > 100 µM, the TGI (EKVX NSCLC) was > 100 µM and the TGI (SK-MEL-28 melanoma) was > 100 µM. For the same molecule, the TGI (MALME-3M melanoma) was > 100 µM, the TGI (KM20L2 colon) was > 100 µM and the TGI (HT29 colon) was > 100 µM. For the same molecule, the TGI (SK-MEL-5 melanoma) was > 100 µM, the TGI (OVCAR-8 ovarian) was > 100 µM and the TGI (UACC-62 melanoma) was > 100 µM. For the same molecule, the TGI (SF-268 CNS) was > 100 µM, the TGI (SNB-19 CNS) was > 100 µM and the TGI (HOP-92 NSCLC) was > 100 µM. The TGI (SF-295 CNS) was > 100 µM, the TGI (SN12C renal) was > 100 µM and the TGI (SF-539 CNS) was > 100 µM. For the same molecule, the TGI (SNB-75 CNS) was > 100 µM, the TGI (A549 NSCLC) was > 100 µM and the TGI (HOP-18 NSCLC) was > 100 µM. The TGI (RXF 393 renal) was > 100 µM, the TGI (DLD-1 colon) was > 100 µM and the TGI (SNB-78 CNS) was > 100 µM. The TGI (OVCAR-3 ovarian) was > 100 µM, the TGI (M14 melanoma) was > 100 µM and the TGI (A498 renal) was > 100 µM. The TGI (ACHN renal) was > 100 µM, the TGI (CCRF-CEM leukemia) was > 100 µM and the TGI (HCT-15 colon) was > 100 µM. The TGI (K-562 leukemia) was > 100 µM, the TGI (DMS 273 small cell lung) was > 100 µM and the TGI (DMS 114 small cell lung) was > 100 µM. The TGI (TK-10 renal) was > 100 µM, the TGI (OVCAR-4 ovarian) was > 100 µM and the TGI (786-0 renal) was > 100 µM. The TGI (UO-31 renal) was > 100 µM, the TGI (MOLT-4 leukemia) was > 100 µM and the TGI (OVCAR-5 ovarian) was > 100 µM. For the same molecule, the TGI (CAKI-1 renal) was > 100 µM, the TGI (HOP-62 NSCLC) was > 100 µM and the TGI (LXFL 529 NSCLC) was > 100 µM. The TGI (RPMI-8226 leukemia) was > 100 µM, the TGI (SW-620 colon) was > 100 µM and the TGI (NCI-H460 lung) was > 100 µM. For the same molecule, the TGI (M19-MEL melanoma) was > 100 µM, the TGI (HCT-116 colon) was > 100 µM and the TGI (UACC-257 melanoma) was > 100 µM. For the same molecule, the TGI (NCI-H226 lung) was > 100 µM, the TGI (KM12 colon) was > 100 µM and the TGI (HL-60(TB) leukemia) was > 100 µM. The TGI (LOX IMVI melanoma) was > 100 µM.

`COc1ccc(OC)c2c(=O)c3ccccc3[nH]c12` was tested, and the TGI (U251 CNS) was > 100 µM, the TGI (NCI-H522 lung) was > 100 µM and the TGI (IGROV1 ovarian) was > 100 µM. For the same molecule, the TGI (EKVX NSCLC) was > 100 µM, the TGI (SK-MEL-28 melanoma) was > 100 µM and the TGI (HT29 colon) was > 100 µM. For the same molecule, the TGI (OVCAR-8 ovarian) was > 100 µM, the TGI (UACC-62 melanoma) was > 100 µM and the TGI (SF-268 CNS) was > 100 µM. For the same molecule, the TGI (SNB-19 CNS) was > 100 µM, the TGI (HOP-92 NSCLC) was > 100 µM and the TGI (A549 NSCLC) was > 100 µM. For the same molecule, the TGI (NCI-H23 lung) was > 100 µM, the TGI (RXF 393 renal) was > 100 µM and the TGI (SNB-78 CNS) was > 100 µM. The TGI (SK-OV-3 ovarian) was > 100 µM, the TGI (M14 melanoma) was > 100 µM and the TGI (A498 renal) was > 100 µM. For the same molecule, the TGI (CCRF-CEM leukemia) was > 100 µM, the TGI (DMS 273 small cell lung) was > 100 µM and the TGI (DMS 114 small cell lung) was > 100 µM. The TGI (TK-10 renal) was > 100 µM, the TGI (SR leukemia) was > 100 µM and the TGI (UO-31 renal) was > 100 µM. The TGI (MOLT-4 leukemia) was > 100 µM, the TGI (OVCAR-5 ovarian) was > 100 µM and the TGI (HOP-62 NSCLC) was > 100 µM. The TGI (NCI-H460 lung) was > 100 µM, the TGI (M19-MEL melanoma) was > 100 µM and the TGI (HCT-116 colon) was > 100 µM. The TGI (UACC-257 melanoma) was > 100 µM, the TGI (NCI-H226 lung) was 94.1 µM and the TGI (KM12 colon) was > 100 µM. For the same molecule, the TGI (HL-60(TB) leukemia) was > 100 µM.

In the case of `C/C(CC(=O)Nc1cccc([N+](=O)[O-])c1)=N\NC(=O)C[n+]1ccccc1`, the TGI (U251 CNS) is reported as > 100 µM, the TGI (NCI-H522 lung) is reported as > 100 µM and the TGI (IGROV1 ovarian) is reported as > 100 µM. For the same molecule, the TGI (COLO 205 colon) was > 100 µM, the TGI (EKVX NSCLC) was > 100 µM and the TGI (SK-MEL-28 melanoma) was > 100 µM. For the same molecule, the TGI (MALME-3M melanoma) was > 100 µM, the TGI (KM20L2 colon) was > 100 µM and the TGI (HT29 colon) was > 100 µM. The TGI (SK-MEL-5 melanoma) was > 100 µM, the TGI (HCC-2998 colon) was > 100 µM and the TGI (OVCAR-8 ovarian) was > 100 µM. The TGI (UACC-62 melanoma) was > 100 µM, the TGI (SF-268 CNS) was > 100 µM and the TGI (HOP-92 NSCLC) was > 100 µM. The TGI (SF-295 CNS) was > 100 µM, the TGI (SF-539 CNS) was > 100 µM and the TGI (SNB-75 CNS) was > 100 µM. For the same molecule, the TGI (A549 NSCLC) was > 100 µM, the TGI (SK-MEL-2 melanoma) was > 100 µM and the TGI (NCI-H23 lung) was > 100 µM. The TGI (RXF 393 renal) was > 100 µM, the TGI (DLD-1 colon) was > 100 µM and the TGI (SNB-78 CNS) was > 100 µM. The TGI (OVCAR-3 ovarian) was > 100 µM, the TGI (SK-OV-3 ovarian) was > 100 µM and the TGI (M14 melanoma) was > 100 µM. The TGI (XF 498 CNS) was > 100 µM, the TGI (CCRF-CEM leukemia) was > 100 µM and the TGI (DMS 114 small cell lung) was > 100 µM. The TGI (TK-10 renal) was > 100 µM, the TGI (786-0 renal) was > 100 µM and the TGI (UO-31 renal) was > 100 µM. For the same molecule, the TGI (MOLT-4 leukemia) was > 100 µM, the TGI (OVCAR-5 ovarian) was > 100 µM and the TGI (HOP-62 NSCLC) was > 100 µM. The TGI (LXFL 529 NSCLC) was > 100 µM, the TGI (RPMI-8226 leukemia) was > 100 µM and the TGI (SW-620 colon) was > 100 µM. The TGI (NCI-H460 lung) was > 100 µM, the TGI (M19-MEL melanoma) was > 100 µM and the TGI (HCT-116 colon) was > 100 µM. The TGI (UACC-257 melanoma) was > 100 µM, the TGI (NCI-H226 lung) was > 100 µM and the TGI (KM12 colon) was > 100 µM. The TGI (HL-60(TB) leukemia) was > 100 µM and the TGI (LOX IMVI melanoma) was > 100 µM.
